Measurements reported in patent US20220373437A1, “SYSTEM FOR EVALUATING CHEMO-PREVENTIVE POTENTIAL OF PHC AND ITS PREPARED CHITOSAN NANOPARTICLES” (priority 2022, published 2022).

Columns and labels:
Assay type in all cases: in vivo, Wistar rats
[1] = system: DEN induced hepatocellular carcinoma; assay: Macroscopic hepatic nodule incidence in DEN + CCl4 induced HCC rats; settings: DEN 200 mg/kg i.p. + weekly CCl4 s.c., 16 weeks, HCC control group 6-7 nodules, normal control none
Procedure: (§1) In an embodiment, an injection 106 is used for inducing Hepatocellular Carcinoma (HCC), wherein for the induction of HCC, rats administered single intraperitoneal injection of DEN (200 mg/kg body weight) followed by weekly subcutaneous injections of carbon tetrachloride (3 ml/kg body weight) for 6 weeks, wherein the rats are divided into eight groups, from which group 1 is served as normal control, and group 2-8 are given single dose of DEN and repeated dose of CCl4 till the completion of the experimental duration of 16 weeks, wherein freshly prepared solution of DEN in normal saline is used for the induction of HCC in rats by administering 200 mg/kg, i.p., PHC (2:1:1) is dispersed in normal saline suspension to administer at doses of 900 mg/kg, p.o and 1935 mg/kg p.o. Soranib (Sorafenib 200 mg) tablets are powdered and dissolve in normal saline solution and the freshly prepared solution is used as standard drug.
In another embodiment, all the rats are allowed to consume commercial pellet diet during the course of the study, wherein eight groups of rat are differentiated into six groups consisting of eight rats and two groups consisting of twelve rats.
In one embodiment, a refrigerator 124 is coupled to the treatment unit 110 for storing the tissues at −20° C. and observing the presence of nodules using the UV spectrophotometer 114. […]

[2] = system: DEN induced hepatocellular carcinoma; assay: Liver histopathology (H and E stained sections) in DEN + CCl4 induced HCC rats; settings: 16 weeks
Procedure: as §1
(§2) In an embodiment, a collection unit 108 is used for collecting serum and tissue samples after anesthetizing overnight fasted rats using intraperitoneal administration of thiopentone sodium at a dose of 40 mg/kg, wherein the blood sample is collected by retro-orbital plexus followed by cardiac puncture.
In one embodiment, a micropipette 122 is coupled to the treatment unit 110 for pouring formalin solution for histopathological examination. […]

[3] = system: DEN induced hepatocellular carcinoma; assay: Total bilirubin, total protein, albumin, globulin and A/G ratio in DEN + CCl4 induced HCC rats; settings: ANOVA followed by Dunnett's t-test vs HCC group
Procedure: as §1, §2
In another embodiment, the treatment unit 110 comprises a centrifuge 116 for centrifugating the collected sample of blood at 3000 rpm for 10 minutes to separate the serum, which is kept at −20° C. until further analysis.
In another embodiment, the live markers are selected from a group comprising Alanine Aminotransaminase (ALT)/Serum Glutamate Pyruvate Transaminase (SGPT), Aspartate Aminotransaminase (AST)/Serum Glutamate Oxaloacetate Transaminase (SGOT), Alkaline Phosphatase (ALP), Lactate dehydrogenase (LDH), total protein, albumin, globulin and total bilirubin.
FIG. 6 illustrates effect on total bilirubin, total protein, albumin and globulin in control and experimental groups in accordance with an embodiment of the present disclosure. All values are expressed as mean±Standard deviation (SD) (n=6) except n=5 in Plant ‘c’ group. Statistical analysis is done using One way Analysis of Variance (ANOVA) followed by Dunnett's t-test using GraphPad Prism Version 8.0.1. Where, HCC is compared with NC group while the treatment groups (Plant ‘a’, Plant ‘b’, Plant ‘c’, PHC (2:1:1), CNP-EL and STD) are compared with HCC group. ^#P<0.0001 is very highly significant when compared with NC, ^aP<0.0001 is very highly significant, ^bP<0.001 is highly significant, ^cP<0.01 is very significant, ^dP<0.05 is significant and ns=not significant when compared with HCC group. Where NC is normal control group; HCC is hepatocellular carcinoma group; Plant ‘a’ group is Berberis aristata treated group; Plant ‘b’ group is Andrographis paniculata treated group; Plant ‘c’ group is Thevetia peruviana treated group; PHC (2:1:1) group is Polyherbal combination of 2:1:1 treated group; CNP-EL group is Chitosan nanoparticles of PHC (2:1:1) treated group and STD group is Standard Sorafenib treated group. Unit: Bilirubin: mg/dl, Total protein, Albumin and globulin: gm/dl.

[4] = system: DEN induced hepatocellular carcinoma; assay: Lipid peroxidation (MDA) in liver tissue homogenates of DEN + CCl4 induced HCC rats; settings: vs HCC group
Procedure: as §1
In one embodiment, a tissue homogenizer 120 is coupled to the treatment unit 110 for preparing ten percentage homogenates of liver tissue. […]
FIG. 7 illustrates effect on lipid peroxidation (LPO) in control and experimental groups in accordance with an embodiment of the present disclosure. All values are expressed as mean±Standard deviation (SD) (n=6) except n=5 in Plant ‘c’ group. […]
Malondialdehyde (MDA), an end product of LPO is assessed in the tumor tissues homogenates. […]

SMILES: CNC(=O)c1cc(Oc2ccc(NC(=O)Nc3ccc(Cl)c(C(F)(F)F)c3)cc2)ccn1 [STD, Sorafenib]
- number of macroscopically visible hepatic nodules [1]: 0-1
- histopathology of H and E stained section of liver (40×) [2]: hepatic tissue with cytoplasm, less necrosis of cell, altered hepatocytes and hepatocellular architecture
- A/G ratio, change compared to HCC group [3]: very highly significant (^aP<0.0001) increased
- level of albumin, change compared to HCC group [3]: very highly significant (^aP<0.0001) increased
- level of globulin, change compared to HCC group [3]: very highly significant (^aP<0.0001) increased
- level of total bilirubin, change compared to HCC group [3]: very highly significantly (^aP<0.0001) decreased
- level of total protein, change compared to HCC group [3]: very highly significant (^aP<0.0001) increased
- levels of MDA (lipid peroxidation), change compared to HCC group [4]: very highly significant (^aP<0.0001) decreased
